According to patent US20260345641A1, “COMPOSITIONS AND USES THEREOF” (Algorae Pharmaceuticals Ltd, priority 2023, published 2026):

Experiments:
[1] = oral administration; cited from earlier work
[2] = test system: SH-S5Y5 neuroblastoma cells; test: Cell viability (MTT) in response to Aβ, in vitro model of Alzheimer's disease; assay type: cell-based; details: 20 μM Aβ, 24 h
Description: (§1) The SH-S5Y5 neuroblastoma cell line was used for pre-clinical analysis. The SH-S5Y5 cell line is commonly used as a model for neurodegenerative disorders as the cells can be converted to various types of functional neurons by the addition of specific compounds (see, e.g., Xicoy et al., 2017, Molecular Neurodegeneration, 12: 10). In addition, the SH-S5Y5 cell line has been used widely in experimental neurological studies, including analysis of neuronal differentiation, metabolism, and function related to neurodegenerative processes, neurotoxicity and neuroprotection (see, e.g., Datki et al., 2003, Brain Research Bulletin, 62(3): 22-229; and Xie et al., 2010, Chinese Medical Journal, 123(8): 1086-1092).
100 μL MTT reagent was added to each well (final concentration 0.5 mg/mL). Cells were then incubated at 37 °C, 5% CO2 for 4 hours. Solubilization buffer (100 μL) was then added to each well and further incubated at 37 °C, 5% CO2 for 24 hours. Absorbance was then measured by spectrophotometer at 550-600 nm and background corrected at 650 nm.
Amyloid-β (Aβ; 1 mg) was dissolved in 2 mL of 1,1,1,3,3,3-hexafluoro-2-propanol (HFIP). An additional 200 μL of HFIP was then added due to volatility. The Aβ was sealed with parafilm and vortexed for 30 seconds before aliquoting at 100 μL per 1.5 mL tube. HFIP was then evaporated in fume hood for 8 hours. Tubes were then sealed with lid and parafilm and stored at −80 °C. Prior to use, Aβ was reconstituted in DMSO to a final volume of 10% v/v for 10-15 min at RT and vortexed every 3-5 min. F-12 medium was then added to a final volume of 90% v/v. Aβ was then stored at 4 °C for 24 hours and vortexed before use.
Cells were seeded in 96-well microplates and incubated 37 °C, 5% CO2 for 24 hours.

SH-SY5Y cells = test: Gene expression analysis by RNA sequencing in the presence of Aβ; assay type: cell-based, human
Description: as §1
Total RNA was isolated from cells using TRIzol in accordance with the manufacturer's instructions (Invitrogen, Carlsbad, CA, USA). RNA concentration and quality was assessed using a NanoDrop spectrophotometer. Only samples with a 260/280 ratio of ≥1.8 were used for further analysis.
Messenger RNA (mRNA) was purified from total RNA using poly-T oligo attached magnetic beads. After fragmentation, cDNA synthesis was performed in accordance with the manufacturer's instructions (Illumina, San Diego, CA, USA) to generate a directional and non-directional library. Libraries were checked with Qubit, real-time PCR was performed for quantification, and size distribution detection was performed using the Bioanalyzer. Quantified libraries were pooled and sequenced on an Illumina platform, according to the manufacturer's instructions.
Raw reads were filtered and mapped to human reference genome (GRCh38/hg38) using HISAT2. Differential gene expression analysis was performed using R Package DEG seq2. […] Manual annotation of genes previously associated with specific neurodegenerative disorders and dementias was performed following a text mining analysis.

SMILES | bioavailability [1] | Cell viability as measured by MTT ([2]; CBD 2.5 μM) | Cell viability as measured by MTT ([2]; CBD 5 μM) | Cell viability as measured by MTT ([2]; CBD 10 μM) | MFSD8 expression (SH-SY5Y cells) [FPKM] | MBP expression (SH-SY5Y cells; 5 μM CBD, Aβ, control 0.089, P 0.012) [FPKM] | GBE1 expression (SH-SY5Y cells; 5 μM CBD, Aβ, control 1.194, P 0.037) [FPKM] | ERCC4 expression (SH-SY5Y cells; 5 μM CBD, Aβ, control 1.970, P 0.037) [FPKM] | MT-TW expression (SH-SY5Y cells; 5 μM CBD, Aβ, control 2.846, P 0.023) [FPKM] | TRAPPC2 expression (SH-SY5Y cells; 5 μM CBD, Aβ, control 3.872, P 0.013) [FPKM] | SLC20A2 expression (SH-SY5Y cells; 5 μM CBD, Aβ, control 7.014, P 0.046) [FPKM] | IRF6 expression (SH-SY5Y cells; 5 μM CBD, Aβ, control 7.365, P 0.012) [FPKM] | LAMP1 expression (SH-SY5Y cells; 5 μM CBD, Aβ, control 34.350, P 0.018) [FPKM] | TAF15 expression (SH-SY5Y cells; 5 μM CBD, Aβ, first TAF15 line, control 14.968, P 0.046) [FPKM] | TAF15 expression (SH-SY5Y cells; 5 μM CBD, Aβ, second TAF15 line, control 15.869, P 0.046) [FPKM]
COc1ccc2c3c1O[C@H]1C[C@@H](O)C=C[C@@]31CCN(C)C2 [Galantamine] | high bioavailability | – | – | – | – | – | – | – | – | – | – | – | – | – | –
C=C(C)[C@@H]1CCC(C)=C[C@H]1c1c(O)cc(CCCCC)cc1O [CBD, Cannabidiol] | – | 0.011 | 0.031 | 0.116 | 2.603 | 0.046 | 1.305 | 2.197 | 4.309 | 4.267 | 7.447 | 7.774 | 31.452 | 17.887 | 17.095
CCN(C)C(=O)Oc1cccc([C@H](C)N(C)C)c1 [Rivastigmine] | high bioavailability | – | – | – | – | – | – | – | – | – | – | – | – | – | –
